Laboratory results as given in US11370775B2, “Substituted benzimidazole derivatives as D-amino acid oxidase (DAAO) inhibitors” (NATIONAL TAIWAN UNIVERSITY, priority 2016, dated 2022).

Tests used:
porcine kidney DAO = target: T1, porcine kidney DAO (Sus scrofa, UniProt P00371); assay: pkDAO enzymatic assay (porcine kidney DAO IC50 assay); format: biochemical; details: D-alanine substrate, pH 8.3, 37° C., without FAD
T1 construct: purchased Sigma-Aldrich; host or cells: porcine kidney
Procedure: The DAAO enzymatic activity assay was modified according to the report of Oguri et al (Oguri, S., Screening of d-amino acid oxidase inhibitor by a new multi-assay method. Food chemistry 2007, 100 (2), 616). The DAAO activity was measured by using substrate D-alanine reaction produced hydrogen peroxide (H2O2) to further react with 3-(4-hydroxyphenyl) propionic acid (HPPA). The HPPA were oxidized by H2O2 and peroxidase to become the fluorogenic dimer which was measured to represent the activity of DAAO.
For porcine kidney DAO IC50 assay, the DAO substrate was prepared in 50 mM D-alanine (dissolved in 0.2 M Tris-HCl buffer, pH 8.3). A 100 μl of D-alanine solution was mixed with 4 μl (in 100% dimethyl sulfoxide, DMSO) of different concentrations of candidate compounds shown in tables below ranging from 48.83 μM, 97.66 μM, 195.31 μM, 390.63 μM, 781.25 μM, 1.56 mM, 3.13 mM, 6.25 mM, 12.50 mM, 25.00 mM, and 50.00 mM, with a final DMSO concentration of 0.167% in each reaction concentration. 10 μl of D-alanine and candidate compound mixture was incubated with 220 μl of Reaction Master Mix in black 96 well plate at 37° C. for 5 minutes. The Reaction Master Mix contained 110 μl of 5 U/mL porcine kidney DAO (Sigma-Aldrich, USA) solution (dissolved with 0.2 M Tris-HCl buffer, pH 8.3), 1.1 mL of 15 U/mL peroxidase solution (dissolved with 0.2 M Tris-HCl buffer, pH 8.3), 1.1 mL of 20 mM HPPA solution (dissolved with 0.2 M Tris-HCl buffer, pH 8.3), and 22 ml of 2 M Tris-HCl buffer (pH 8.3) for 110 reaction assays.
Fluorescence intensity (Fs) was measured at 405 nm by irradiation excitation at 320 nm. The higher the DAO enzymatic activity was, the higher the fluorescence intensity. The fluorometric inhibition indicator (Fi) was obtained from the following equation: Fi=(Fs-FDrug)/(FDMSO), where the fluorescent drug blank (FDrug) was measured in the drug mixture solution (using 0.2 M Tris HCl buffer, pH 8.3, without D-alanine). A DMSO blank (FDMSO) was measured under a 100% DMSO solution.
Although FAD is generally included in the reaction mixture in the D-amino acid oxidase assay since it easily dissociates from the holoenzyme, the present method was performed without FAD. The inhibitory effect of DAO inhibitors was compared by using inhibitory concentrations leading to 50% inhibition of DAAO activity (IC50). The IC50 values were calculated by nonlinear regression model using GraphPad Prism, version 5(GraphPad Software, Inc., La Jolla, Calif.).

[1] = target: T2, DAO in SK-N-SH neuroblastoma cells (Homo sapiens, UniProt P14920); assay: Cell-based DAO assay in SK-N-SH cells; set-up: key to Relative DAO activity normalize to DMSO at Final Conc. 100 uM / Relative DAO activity normalize to DMSO at Final Conc. 10 uM: fraction of DMSO-control DAO activity (1 = DMSO); details: SK-N-SH 1.25*10^5 cells/well, drug treated for 3.5 hr; for IC50: 50 mM D-serine
T2 construct: endogenous in cells; host or cells: SK-N-SH neuroblastoma cells (ATCC)
T2 sequence (P14920 whole entry): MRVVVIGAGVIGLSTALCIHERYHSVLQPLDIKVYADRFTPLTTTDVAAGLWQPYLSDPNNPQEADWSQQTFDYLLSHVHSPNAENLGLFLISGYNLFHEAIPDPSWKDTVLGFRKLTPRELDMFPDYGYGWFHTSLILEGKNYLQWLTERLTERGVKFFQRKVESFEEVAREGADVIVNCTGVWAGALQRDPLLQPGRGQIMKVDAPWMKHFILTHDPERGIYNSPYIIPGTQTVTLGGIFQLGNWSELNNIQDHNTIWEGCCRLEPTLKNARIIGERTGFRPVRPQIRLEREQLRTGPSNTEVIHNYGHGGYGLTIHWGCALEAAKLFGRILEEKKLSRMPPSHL
Procedure: The SK-N-SH neuroblastoma cell line was purchased from American Type Culture Collection (ATCC). It was cultured in MEM media (Invitrogen/GIBCO, Rockville, Md.) supplemented with 10% fetal bovine serum, 1×NEAA (Invitrogen/GIBCO) at 37° C. with 5% CO2 in a humidified atmosphere. Cells were trypsinized and plated into a black 96-well plate (NUNC No. 237108) at a density of 125,000 cells/well in 50 μl before cell-based DAO assay.
The cellular DAO activity assay was using a method modified according to the report of Brandish et al. (Brandish, P. E., et al., A cell-based ultra-high-throughput screening assay for identifying inhibitors of D-amino acid oxidase. J Biomol Screen, 2006. 11(5): p. 481-7). SK-N-SH cells were suspended in assay buffers of HANKS buffer solution (Invitrogen/GIBCO No. 14025-092) with 20 mM HEPES. D-serine of (final concentration 50 mM) was added in each well as the substrate for DAO enzyme. The Amplex Red Hydrogen Peroxide/Proxidase Assay Kit (Molecular Probes/Invitrogen, cat. A22188) was used to measure H2O2 production which diffused across the cell membrane into the assay medium after DAO reaction. After seeding cells into black 96-well plate (Nunc No. 237108, Denmark), 50 μl of SK-N-SH cells (125,000 cells/well) was mixed with 50 μl drug solution (2.5 fold of interesting final concentration) and incubate at 37° C. with 5% CO2 in a humidified atmosphere for 30 minutes. After 30 minutes later, 25 μl of a 5 fold mixture containing D-serine, horseradish peroxidase (HRP), and Amplex Red was added into wells containing 100 μl of cell-drugs mixture and incubated at 37° C. with 5% CO2 in a humidified atmosphere for 3 hours. The final concentration of DMSO is below 1%. The fluorescence signal was then detected in SpectraMax M2e microplate reader (Molecular Devices, USA) with excitation at 544 nm and emission at 590 nm. The optimized assay buffer contained a final concentration of 50 mM D-serine, 0.625 units HRP, and 50 μM Amplex Red in a 125 μl assay volume.

T1 sequence (P00371 whole entry): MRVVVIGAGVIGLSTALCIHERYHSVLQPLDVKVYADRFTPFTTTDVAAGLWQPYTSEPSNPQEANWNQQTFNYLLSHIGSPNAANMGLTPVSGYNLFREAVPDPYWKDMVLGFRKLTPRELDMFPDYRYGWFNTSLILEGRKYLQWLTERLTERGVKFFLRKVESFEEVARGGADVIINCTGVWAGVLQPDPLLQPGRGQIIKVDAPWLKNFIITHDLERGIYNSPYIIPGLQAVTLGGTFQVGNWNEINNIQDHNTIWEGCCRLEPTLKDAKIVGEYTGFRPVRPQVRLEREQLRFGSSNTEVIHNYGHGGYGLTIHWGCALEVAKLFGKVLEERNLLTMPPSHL

IC50 (porcine kidney DAO) [µM]	Relative DAO activity normalize to DMSO at Final Conc. 10 uM [1]	Relative DAO activity normalize to DMSO at Final Conc. 100 uM [1]	IC50 [1] [µM]	SMILES
1.19	1.05	0.69	141	COc1c(C)cnc(C[S+]([O-])c2nc3ccc(O)cc3[nH]2)c1C (centres unmarked) [RS-D7, reference compound]
367	0.62	0.48	74.2	COc1c(C)cnc(CSc2nc3cc(C(=O)O)ccc3n2CCC2=CCCCC2)c1C [compound 12083, 1-(2-(cyclohex-1-en-1-yl)ethyl)-2-(((4-methoxy-3,5-dimethylpyridin-2-yl)methyl)thio)-1H-benzo[d]imidazole-5-carboxylic acid]
